As a reminder, the IC50 is the midpoint of a concentration-inhibition curve.

One assay deals with T1, human isoQC (Homo sapiens, UniProt Q9NXS2).
T1 construct: The Golgi luminal, enzymatically active region of human isoQC (S53-L382; see, e.g., Huang et al., 2011); GST (with enterokinase site) (N, cleaved yes); made in house; host or cells: E. coli
The experiment in a line: Assay 1 - isoQC potency, fluorescent enzymatic assay (H-Gln-AMC, coupled pGAPase detection). Particulars: recombinant isoQC, 1 hour at 37°C. In kind it is biochemical. From the text: The Golgi luminal, enzymatically active region of human isoQC (S53-L382; see, e.g., Huang et al., 2011) was obtained by expression in E. coli of an N-terminally GST Enterokinase and C-terminally 6xHis tagged construct in the pET41(+) vector and subsequent purification using Ni-NTA IMAC. Enterokinase digestion ensued, followed by another Ni-NTA IMAC purification, Superdex75 based size exclusion and finally a spin concentration using a 10 kDa molecular weight cutoff. The final protein is formulated in 50 mM Tris-HCl, 150 mM NaCl, 50% Glycerol, pH 7.8.
(§1) Pyroglutamylation was measured by conversion of glutamine-4-amino-7-methylcoumarine (H-Gln-AMC, Bachem) to pyroglutamyl-AMC, which is subsequently a specific substrate for pyroglutamylaminopeptidase (pGAPase, Qiagen), releasing free AMC which can be fluorescently detected. For a typical inhibition assay, 7.5 µL aliquots of threefold dilutions of test compound in 50mM Tris pH8 buffer were plated in 384-well plates. 15 µL 20 µM hGln-AMC (diluted from a 40 mM stock dissolved in 25 mM HEPES using 50 mM Tris-HCl 25 pH 8.0) was added to each well. Finally, 7.5 µL, 3 ng/µL recombinant isoQC enzyme was added and the reaction mixture was incubated for 1 hour at 37°C. A 5 minute incubation at 98°C was then performed to denature the isoQC enzyme and stop the reaction.
To detect the amount of pyroglutamyl-AMC formed, a 0.125 U/mL pGAPase enzyme diluted in 50 mM Tris-HCl pH 8.0 containing 10 mM dithiothreitol (DTT) solution was prepared. 25 µL of the pyroglutamylation reaction mixture was transferred into an empty plate and to that, 25 µL of the pGAPase enzyme solution was added. Plates were then incubated for 25 minutes at room temperature before fluorescence readings were taken on an Envision2 plate reader with excitation set at 380 nm and emission at 450 nm. DMSO concentrations during the assay never exceeded 1% and activities were compared to controls containing only the same amount of DMSO and no test compound. Controls were taken along containing pyroglutamylated-AMC (Bachem, dissolved at 10 mM in DMSO) instead of H-Gln-AMC to control for pGAPase inhibition.
(§2) IC50 values are calculated using non-linear regression analysis with GraphPad Prism software.

A further assay addresses T2, recombinant QC enzyme (Homo sapiens, UniProt Q16769).
T2 construct: bacterial expression of residues 33-361 of uniprot ID Q16769, fused to a His tag; His tag (cleaved yes); made in house
The experiment in a line: Assay 2 - QC potency, fluorescent enzymatic assay (H-Gln-AMC, coupled pGAPase detection). It is filed as biochemical. To be noted: 1 hour at 37°C. Here is the method:
After scale-up, expression and lysis, protein was purified by Ni-NTA IMAC, dialysed in the presence of Factor Xa, further purified by Ni-NTA reverse IMAC and finally filtrated for size on a Superdex 200 16/60 column. Final protein was concentrated using a spin concentrator at 10 kDa molecular weight cut-off and formulated in 150 mM NaCl, 50 mM Tris-HCl, 50% Glycerol, pH 8.0.
as §1, with “50 mM” for “50mM”, “h-Gln-AMC” for “hGln-AMC”, “Tris-HCl” for “Tris-HCl 25”, “QC” for “isoQC”
25 µL of the pyroglutamylation reaction mixture was transferred into an empty plate and to that, 25 µL of the pGAPase enzyme solution was added. Plates were then incubated for 25 minutes at room temperature before fluorescence readings were taken on an Envision2 plate reader with excitation set at 380 nm and emission at 450 nm.
Controls were taken along containing pyroglutamylated-AMC (Bachem, dissolved at 10 mM in DMSO) instead of H-Gln-AMC to control for pGAPase inhibition.
as §2

For another assay, the system named is pyroglutamylated CD47. The experiment in a line: Assay 3 - cell-based potency assay (pyroglutamylation in live cells, total CD47/pE-CD47 dual staining, FACS). Set-up: species or system human. To be noted: IC50 of CC2C6 signal, KBM7 cells, 72 hours incubation. As to the method:
Cells were spun for 4 minutes at 1500 rpm and washed once with PBS / 0.5% BSA. Cells were spun down again and the supernatant was removed and incubated in 100 uL antibody staining solution (PBS / 0.5% BSA / 0.1 µg/mL DAPI (4',6-diamidino-2-phenylindole, ThermoFisher Scientific) and a mixture of 1:500 FITC-conjugated anti-human CD47 clone 2D3, which recognizes total CD47 irrespective of its pyroglutamylation state, and 1:500 Alexa647-conjugated anti-human CD47 clone CC2C6, which specifically detects pyroglutamylated CD47) for 2 hours at 4°C. Next, the cells were spun down and washed twice with 2 x 150 µL PBS / 0.5% BSA to remove unbound antibody. Cells were again spun down and taken up in 300 µL FACS buffer before analysis on a Celesta FACS machine (BD Biosciences).
KBM7 cells (Kotecki et al., 1999) were infected with lentivirus produced by transfecting pSCNC-LentiCRISPR-QPCTL or pSCNC-LentiCRISPR-CD47 into HEK-293T cells according to standard protocols. After 24 hours incubation, cells were selected with puromycin (Invivogen, 1 µg/mL) for 48 hours. Cells were stained for total CD47 and pE-CD47 and QPCTL k.o. cells were sorted out as negative for pE-CD47, and CD47 k.o. cells as negative for total CD47, using a FACSAria III and FACS Diva software (BD Biosciences).
In order to test compounds for their effect on pyroglutamylation in live cells, 25000 KBM7 cells per well were seeded in a 96-well U-bottom plate in 150 µl IMDM / 10% FCS / 1% Pen / Strep medium and a 10-point 2-fold dilution range of test compounds. After 72 hours incubation at 37°C, 5% COz, cells were stained for total CD47 and pE-CD47 and analysed on a BD Celesta using FACS Diva software (BD Biosciences). Cells gated for DAPI negativity were recorded and the median fluorescence intensity (MFI) of each sample was transformed to linearly scale between the MFI's of wildtype and CD47 knockout cells (in case of the 2D3 antibody) and the wildtype and QPCTL knockout cells (in case of the CC2C6 antibody). ICso's were calculated by 3 parameter logistic regression of the CC2C6 signal vs. compound concentration, where the top of the sigmoidal curve was fixed at 1, using R and the drc package (http://www.r-project.org, https://cran.r-project.org/web/packages/drc/index.html).

Molecules are shown by their SMILES.

T2 sequence (Q16769 33-361): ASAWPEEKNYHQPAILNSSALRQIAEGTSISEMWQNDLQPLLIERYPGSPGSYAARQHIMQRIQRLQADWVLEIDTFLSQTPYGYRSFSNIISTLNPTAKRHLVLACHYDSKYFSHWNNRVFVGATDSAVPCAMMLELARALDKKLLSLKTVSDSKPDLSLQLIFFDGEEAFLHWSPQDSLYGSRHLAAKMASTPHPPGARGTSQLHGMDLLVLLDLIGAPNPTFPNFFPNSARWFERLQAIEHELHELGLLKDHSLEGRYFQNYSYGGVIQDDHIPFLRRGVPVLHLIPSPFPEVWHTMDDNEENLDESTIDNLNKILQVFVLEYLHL
T1 sequence (Q9NXS2 53-382): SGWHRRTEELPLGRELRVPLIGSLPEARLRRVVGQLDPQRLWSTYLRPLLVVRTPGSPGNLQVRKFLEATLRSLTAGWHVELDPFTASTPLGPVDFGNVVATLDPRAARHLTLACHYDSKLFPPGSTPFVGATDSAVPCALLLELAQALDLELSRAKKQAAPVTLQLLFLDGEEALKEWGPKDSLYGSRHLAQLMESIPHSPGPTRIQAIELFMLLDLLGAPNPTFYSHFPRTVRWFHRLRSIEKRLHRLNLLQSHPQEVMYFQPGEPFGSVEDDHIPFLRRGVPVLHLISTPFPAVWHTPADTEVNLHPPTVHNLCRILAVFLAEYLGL

`O=C1OC[C@H](c2ccc(-c3cnn(CC(F)F)c3)cc2F)N1c1ccc2[nH]cnc2c1` [(15)]: the half-inhibitory concentration (IC50) amounted to 2.7 nM on human isoQC; 8 nM on recombinant QC enzyme; 155 nM in the assay with pyroglutamylated CD47 (Homo sapiens, KBM-7, 72 h).
Consider `O=C1OC[C@H](c2ccc(-c3ccc(C(F)(F)F)o3)cc2F)N1c1ccc2[nH]cnc2c1` [(7)], for which the half-inhibitory concentration (IC50) on human isoQC was determined as 10 nM; at recombinant QC enzyme it was 70.1 nM; in the assay on pyroglutamylated CD47 (Homo sapiens, KBM-7, 72 h) it was 503 nM.
The corresponding values for `O=C1OC[C@H](c2ccc(-c3ccn(C(F)(F)F)n3)cc2F)N1c1ccc2[nH]cnc2c1` [(5)] are 7.7 nM, 34.7 nM and 659 nM.
In the case of `O=C1OC[C@H](c2ccc(-c3noc(C(F)(F)F)n3)cc2F)N1c1ccc2[nH]cnc2c1` [(10)], the results for the concentration for half-maximal inhibition (IC50) at human isoQC and at recombinant QC enzyme were 12.6 nM and 48.2 nM, respectively.
For the compound `O=C1OCC(c2ccc(C3CCC(F)(F)CC3)cc2)N1c1ccc2[nH]cnc2c1` (racemic) [(19)-Rac, reference compound], the IC50 at human isoQC was 63.7 nM; in the assay on pyroglutamylated CD47 (Homo sapiens, KBM-7, 72 h), 10400 nM.
On to `O=C1OC[C@H](c2ccc(-c3cc(C(F)(F)F)no3)cc2F)N1c1ccc2[nH]cnc2c1` [(11)], for which the IC50 was found to be 5.2 nM on human isoQC; 24.3 nM on recombinant QC enzyme; 252 nM with pyroglutamylated CD47 (Homo sapiens, KBM-7, 72 h).
The corresponding values for `O=C1OC[C@H](c2ccc(-c3cnn(C(F)(F)F)c3)c(F)c2F)N1c1ccc2[nH]cnc2c1` [(2)] are 4 nM, 38.9 nM and 106 nM.
`O=C1OC[C@H](c2ccc(-c3nc(C(F)(F)F)cs3)cc2F)N1c1ccc2[nH]cnc2c1` [(9)]: the half-inhibitory concentration (IC50) was 9 nM at human isoQC; 36.1 nM at recombinant QC enzyme; 622 nM in the assay with pyroglutamylated CD47 (Homo sapiens, KBM-7, 72 h).
In the case of `O=C1OC[C@H](c2ccc(-c3cnn(C4CC(F)(F)C4)c3)cc2F)N1c1ccc2[nH]cnc2c1` [(16)], the results for the IC50 on human isoQC and at recombinant QC enzyme were 5.1 nM and 9.4 nM, respectively.
For the compound `O=C1OC[C@H](c2ccc(-c3cnn(C(F)(F)F)n3)cc2F)N1c1ccc2[nH]cnc2c1` [(6)], the IC50 on human isoQC was found to be 3 nM; on recombinant QC enzyme, 15.1 nM.
As for `O=C1OCC(c2cc(F)cc(C(F)(F)F)c2)N1c1ccc2[nH]cnc2c1` (racemic) [(17)-Rac, reference compound], the concentration for half-maximal inhibition (IC50) on human isoQC was 1200 nM; on recombinant QC enzyme, 1730 nM; with pyroglutamylated CD47 (Homo sapiens, KBM-7, 72 h) it was > 50000 nM.
Regarding `O=C1OC[C@H](c2ccc(-c3cnn(C4CC4(F)F)c3)cc2F)N1c1ccc2[nH]cnc2c1` (stereo partly drawn) [(14)], the IC50 at human isoQC worked out at 3.6 nM; at recombinant QC enzyme, 12.7 nM.
As for `O=C1OCC(c2ccc(C3CCC(F)(F)CC3)cc2)N1c1ccc2[nH]cnc2c1` (single isomer, unassigned) [(19)-ent1, reference compound], the IC50 on human isoQC was 1240 nM; in the assay on pyroglutamylated CD47 it was > 12500 nM.
Consider `O=C1OC[C@H](c2ccc(-c3ccc(C(F)(F)F)s3)cc2F)N1c1ccc2[nH]cnc2c1` [(8)], for which the IC50 at human isoQC came out at 13.4 nM; at recombinant QC enzyme, 86 nM; in the assay with pyroglutamylated CD47 (Homo sapiens, KBM-7, 72 h), 526 nM.
In the case of `O=C1OCC(c2ccc(N3CCCC3)cc2)N1c1ccc2[nH]cnc2c1` (single isomer, unassigned) [(18)-ent1, reference compound], the concentration for half-maximal inhibition (IC50) on human isoQC is 1170 nM; at recombinant QC enzyme it was 2530 nM; in the assay on pyroglutamylated CD47, > 50000 nM.
As for `O=C1OCC(c2cc(F)cc(C(F)(F)F)c2)N1c1ccc2[nH]cnc2c1` (single isomer, unassigned) [(17)-ent1, reference compound], the IC50 is 10900 nM on human isoQC; > 10000 nM at recombinant QC enzyme; > 50000 nM with pyroglutamylated CD47 (Homo sapiens, KBM-7, 72 h).
Consider `O=C1OC[C@H](c2ccc(-c3cnn(C(F)F)c3)cc2F)N1c1ccc2[nH]cnc2c1` [(12)], for which the half-maximal inhibitory concentration (IC50) at human isoQC amounted to 3.3 nM; on recombinant QC enzyme, 7.5 nM; in the assay with pyroglutamylated CD47 (Homo sapiens, KBM-7, 72 h), 157 nM.
Turning to `O=C1OCC(c2ccc(N3CCCC3)cc2)N1c1ccc2[nH]cnc2c1` (racemic) [(18)-Rac, reference compound], the IC50 came to 48.4 nM at human isoQC; 49.1 nM at recombinant QC enzyme; 8510 nM with pyroglutamylated CD47 (Homo sapiens, KBM-7, 72 h).
On to `O=C1OC[C@H](c2ccc(-c3cnn(CF)c3)cc2F)N1c1ccc2[nH]cnc2c1` [(13)], for which the concentration for half-maximal inhibition (IC50) is 4 nM on human isoQC; 11.3 nM at recombinant QC enzyme; 401 nM with pyroglutamylated CD47 (Homo sapiens, KBM-7, 72 h).
